How the values were obtained:
Format in all cases: biochemical
EGFR (D770_N771insNPG) = EGFR (D770_N771insNPG) (Homo sapiens (Human), UniProt P00533, INS770NPG); experiment: HotSpot radiometric kinase assay, EGFR (D770_N771insNPG); conditions: 10 μM ATP, read-out: EGFR (Δ770_N771insNPG) IC50
Procedure, shortened: (§1)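 Radiometric filter-binding assay with EGFR mutant kinase/substrate pairs in 20 mM Hepes pH 7.5 with Mg, EGTA, Brij35, BSA, Na3VO4, DTT, 1% DMSO. Compound preincubated ~20 min, then ATP/^33P-ATP added at 10 μM final. Reaction 120 min at room temperature, spotted on P81 paper; IC50 from curve fits.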

CLK2 = CLK2 (Homo sapiens (Human), UniProt P49760); experiment: Inhibition of CLK2 kinase activity evaluated at Nanosyn (ADP-Glo); conditions: ADP-Glo luminescence
Chain of CLK2 (P49760 whole entry, canonical isoform): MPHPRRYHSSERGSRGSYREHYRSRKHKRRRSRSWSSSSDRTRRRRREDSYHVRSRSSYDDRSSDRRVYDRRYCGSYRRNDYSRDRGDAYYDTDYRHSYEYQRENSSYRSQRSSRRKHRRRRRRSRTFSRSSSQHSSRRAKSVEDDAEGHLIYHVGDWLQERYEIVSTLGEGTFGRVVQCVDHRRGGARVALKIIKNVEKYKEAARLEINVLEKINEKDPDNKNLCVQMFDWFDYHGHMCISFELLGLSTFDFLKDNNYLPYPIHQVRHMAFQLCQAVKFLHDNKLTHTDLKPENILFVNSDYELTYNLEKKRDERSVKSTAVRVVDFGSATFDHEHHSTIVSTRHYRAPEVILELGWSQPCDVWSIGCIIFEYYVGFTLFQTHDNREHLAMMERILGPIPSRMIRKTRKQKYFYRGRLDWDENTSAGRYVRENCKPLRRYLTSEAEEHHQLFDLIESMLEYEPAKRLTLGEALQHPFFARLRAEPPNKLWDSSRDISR
Procedure, shortened: (§2)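 ADP-Glo luminescence (40 min depletion, 10 min detection) quantifies ADP from ATP-initiated phosphorylation of substrate by each CLK isoform in HEPES pH 7.5 buffer, 1% DMSO, assay-specific incubation. %-inhibition calculated against uninhibited and enzyme-free controls.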

EGFR Δ746-750 mutant = EGFR Δ746-750 mutant (Homo sapiens (Human), UniProt P00533, DEL746-750); experiment: HotSpot radiometric kinase assay, EGFR Δ746-750 mutant; conditions: 10 μM ATP
Chain of EGFR Δ746-750 mutant (P00533 other isoform, or with tags, fused parts or gaps del 1-668/del 746-750 limits assumed): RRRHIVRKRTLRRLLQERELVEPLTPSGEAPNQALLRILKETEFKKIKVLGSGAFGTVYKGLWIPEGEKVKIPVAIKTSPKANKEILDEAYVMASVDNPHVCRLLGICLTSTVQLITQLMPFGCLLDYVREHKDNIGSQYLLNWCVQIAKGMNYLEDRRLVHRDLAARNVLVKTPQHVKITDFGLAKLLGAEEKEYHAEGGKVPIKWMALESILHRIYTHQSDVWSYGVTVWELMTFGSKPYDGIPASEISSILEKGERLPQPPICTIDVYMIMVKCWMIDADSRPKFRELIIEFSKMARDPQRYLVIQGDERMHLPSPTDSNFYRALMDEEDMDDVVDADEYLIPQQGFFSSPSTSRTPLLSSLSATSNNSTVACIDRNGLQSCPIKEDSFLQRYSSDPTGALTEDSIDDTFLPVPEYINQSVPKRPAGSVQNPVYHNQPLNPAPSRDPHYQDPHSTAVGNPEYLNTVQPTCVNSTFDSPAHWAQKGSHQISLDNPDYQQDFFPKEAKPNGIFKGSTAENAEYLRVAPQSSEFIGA
Procedure, shortened: as §1

EGFR WT = EGFR WT (Homo sapiens (Human), UniProt P00533); experiment: HotSpot radiometric kinase assay (Reaction Biology), EGFR WT; conditions: 10 μM ATP
Chain of EGFR WT (P00533 25-1210): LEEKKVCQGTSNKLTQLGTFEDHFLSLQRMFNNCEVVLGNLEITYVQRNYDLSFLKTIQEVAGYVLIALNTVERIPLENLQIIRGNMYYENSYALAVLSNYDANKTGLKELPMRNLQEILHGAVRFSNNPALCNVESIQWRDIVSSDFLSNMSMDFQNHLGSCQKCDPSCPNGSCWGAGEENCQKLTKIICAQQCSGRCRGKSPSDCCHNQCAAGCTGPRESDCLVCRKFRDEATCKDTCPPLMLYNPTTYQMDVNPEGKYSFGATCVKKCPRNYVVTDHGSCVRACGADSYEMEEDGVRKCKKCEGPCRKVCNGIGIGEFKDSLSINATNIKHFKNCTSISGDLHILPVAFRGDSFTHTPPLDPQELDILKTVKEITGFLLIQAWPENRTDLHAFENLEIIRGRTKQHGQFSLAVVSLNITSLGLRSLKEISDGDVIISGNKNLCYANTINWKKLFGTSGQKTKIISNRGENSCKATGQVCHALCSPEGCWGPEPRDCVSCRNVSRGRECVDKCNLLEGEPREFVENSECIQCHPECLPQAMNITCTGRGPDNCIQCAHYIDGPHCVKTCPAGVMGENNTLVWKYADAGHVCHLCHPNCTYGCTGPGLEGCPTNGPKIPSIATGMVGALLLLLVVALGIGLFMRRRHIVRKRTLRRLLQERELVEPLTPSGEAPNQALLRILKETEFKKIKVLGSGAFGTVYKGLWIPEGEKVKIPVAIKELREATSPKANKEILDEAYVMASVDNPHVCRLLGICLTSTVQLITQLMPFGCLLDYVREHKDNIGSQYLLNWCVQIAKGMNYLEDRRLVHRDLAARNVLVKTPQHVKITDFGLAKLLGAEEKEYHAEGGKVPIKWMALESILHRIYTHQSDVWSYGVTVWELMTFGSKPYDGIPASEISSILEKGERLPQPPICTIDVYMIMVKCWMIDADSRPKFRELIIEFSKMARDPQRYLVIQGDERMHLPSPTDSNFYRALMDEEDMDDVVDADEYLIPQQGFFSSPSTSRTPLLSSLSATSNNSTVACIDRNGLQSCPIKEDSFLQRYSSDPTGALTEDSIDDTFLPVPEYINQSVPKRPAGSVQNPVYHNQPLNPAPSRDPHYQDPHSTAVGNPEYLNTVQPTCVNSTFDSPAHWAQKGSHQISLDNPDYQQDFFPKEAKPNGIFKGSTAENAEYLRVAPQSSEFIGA
Procedure, shortened: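 Compounds were preincubated ~20 min with kinase/substrate in pH 7.5 Hepes buffer (MgCl2, EGTA, Brij35, BSA, Na3VO4, DTT, 1% DMSO), then ATP plus 33P-ATP was added to 10 μM final. After 120 min at room temperature, reactions were spotted on P81 filters and washed; IC50 values came from curve fits.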

CLK4 = CLK4 (Homo sapiens (Human), UniProt Q9HAZ1); experiment: Inhibition of CLK4 kinase activity evaluated at Nanosyn (ADP-Glo); conditions: ADP-Glo luminescence
Chain of CLK4 (Q9HAZ1 whole entry): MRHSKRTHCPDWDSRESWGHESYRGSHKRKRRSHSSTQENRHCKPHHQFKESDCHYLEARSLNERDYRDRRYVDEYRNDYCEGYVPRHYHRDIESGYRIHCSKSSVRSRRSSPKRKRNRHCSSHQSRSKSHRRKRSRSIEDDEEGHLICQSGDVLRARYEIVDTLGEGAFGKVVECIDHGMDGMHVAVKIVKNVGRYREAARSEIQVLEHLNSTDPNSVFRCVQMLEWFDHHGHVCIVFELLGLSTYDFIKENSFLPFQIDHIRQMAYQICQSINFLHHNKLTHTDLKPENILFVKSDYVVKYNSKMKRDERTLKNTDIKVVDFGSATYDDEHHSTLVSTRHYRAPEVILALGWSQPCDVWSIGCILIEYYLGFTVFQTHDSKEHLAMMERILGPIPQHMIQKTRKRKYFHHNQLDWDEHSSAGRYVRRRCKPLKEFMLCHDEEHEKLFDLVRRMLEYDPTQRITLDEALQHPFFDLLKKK
Procedure, shortened: as §2

CLK3 = CLK3 (Homo sapiens (Human), UniProt P49761); experiment: Inhibition of CLK3 kinase activity evaluated at Nanosyn (ADP-Glo); conditions: ADP-Glo luminescence
Chain of CLK3 (P49761 whole entry): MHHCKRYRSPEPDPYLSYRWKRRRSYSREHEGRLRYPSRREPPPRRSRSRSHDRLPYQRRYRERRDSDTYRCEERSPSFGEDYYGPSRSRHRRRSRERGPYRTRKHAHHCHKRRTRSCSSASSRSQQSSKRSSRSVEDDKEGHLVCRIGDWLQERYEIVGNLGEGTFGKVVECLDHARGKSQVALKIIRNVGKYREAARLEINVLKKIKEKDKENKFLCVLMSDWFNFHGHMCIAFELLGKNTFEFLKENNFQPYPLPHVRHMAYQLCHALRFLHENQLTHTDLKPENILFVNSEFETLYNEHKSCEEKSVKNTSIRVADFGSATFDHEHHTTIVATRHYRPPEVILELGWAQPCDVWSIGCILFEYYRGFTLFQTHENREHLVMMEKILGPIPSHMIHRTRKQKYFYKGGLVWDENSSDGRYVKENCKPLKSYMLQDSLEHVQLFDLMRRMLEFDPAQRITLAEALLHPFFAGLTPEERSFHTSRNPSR
Procedure, shortened: as §2

CLK1 = CLK1 (Homo sapiens (Human), UniProt P49759); experiment: Inhibition of CLK1 kinase activity evaluated at Nanosyn (ADP-Glo); conditions: ADP-Glo luminescence
Chain of CLK1 (P49759 whole entry): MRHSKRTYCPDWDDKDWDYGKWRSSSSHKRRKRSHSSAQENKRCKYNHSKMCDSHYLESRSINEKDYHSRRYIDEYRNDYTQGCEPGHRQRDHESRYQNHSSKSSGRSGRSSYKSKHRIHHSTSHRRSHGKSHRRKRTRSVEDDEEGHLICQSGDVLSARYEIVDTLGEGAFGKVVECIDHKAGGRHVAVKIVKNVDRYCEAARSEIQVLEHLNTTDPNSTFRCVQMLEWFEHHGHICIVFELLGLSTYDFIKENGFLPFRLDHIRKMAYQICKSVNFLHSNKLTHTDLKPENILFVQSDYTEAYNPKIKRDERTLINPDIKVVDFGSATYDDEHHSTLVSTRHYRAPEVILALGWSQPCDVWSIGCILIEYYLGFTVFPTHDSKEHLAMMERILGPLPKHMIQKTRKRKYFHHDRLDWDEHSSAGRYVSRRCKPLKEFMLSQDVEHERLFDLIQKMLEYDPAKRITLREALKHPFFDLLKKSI
Procedure, shortened: as §2

[1] = target: EGFR Δ746-750/C797S mutant (Homo sapiens (Human), UniProt P00533, C797S/DEL746-750); experiment: HotSpot radiometric kinase assay, EGFR Δ746-750/C797S mutant; conditions: 10 μM ATP
Procedure, shortened: as §1

[2] = target: EGFR L858R/T790M/C797S mutant (Homo sapiens (Human), UniProt P00533, C797S/L858R/T790M); experiment: HotSpot radiometric kinase assay, EGFR L858R/T790M/C797S mutant; conditions: 10 μM ATP
Procedure, shortened: as §1

EGFR L858R mutant = EGFR L858R mutant (Homo sapiens (Human), UniProt P00533, L858R); experiment: HotSpot radiometric kinase assay, EGFR L858R mutant; conditions: 10 μM ATP
Chain of EGFR L858R mutant (P00533 25-1210 L858R): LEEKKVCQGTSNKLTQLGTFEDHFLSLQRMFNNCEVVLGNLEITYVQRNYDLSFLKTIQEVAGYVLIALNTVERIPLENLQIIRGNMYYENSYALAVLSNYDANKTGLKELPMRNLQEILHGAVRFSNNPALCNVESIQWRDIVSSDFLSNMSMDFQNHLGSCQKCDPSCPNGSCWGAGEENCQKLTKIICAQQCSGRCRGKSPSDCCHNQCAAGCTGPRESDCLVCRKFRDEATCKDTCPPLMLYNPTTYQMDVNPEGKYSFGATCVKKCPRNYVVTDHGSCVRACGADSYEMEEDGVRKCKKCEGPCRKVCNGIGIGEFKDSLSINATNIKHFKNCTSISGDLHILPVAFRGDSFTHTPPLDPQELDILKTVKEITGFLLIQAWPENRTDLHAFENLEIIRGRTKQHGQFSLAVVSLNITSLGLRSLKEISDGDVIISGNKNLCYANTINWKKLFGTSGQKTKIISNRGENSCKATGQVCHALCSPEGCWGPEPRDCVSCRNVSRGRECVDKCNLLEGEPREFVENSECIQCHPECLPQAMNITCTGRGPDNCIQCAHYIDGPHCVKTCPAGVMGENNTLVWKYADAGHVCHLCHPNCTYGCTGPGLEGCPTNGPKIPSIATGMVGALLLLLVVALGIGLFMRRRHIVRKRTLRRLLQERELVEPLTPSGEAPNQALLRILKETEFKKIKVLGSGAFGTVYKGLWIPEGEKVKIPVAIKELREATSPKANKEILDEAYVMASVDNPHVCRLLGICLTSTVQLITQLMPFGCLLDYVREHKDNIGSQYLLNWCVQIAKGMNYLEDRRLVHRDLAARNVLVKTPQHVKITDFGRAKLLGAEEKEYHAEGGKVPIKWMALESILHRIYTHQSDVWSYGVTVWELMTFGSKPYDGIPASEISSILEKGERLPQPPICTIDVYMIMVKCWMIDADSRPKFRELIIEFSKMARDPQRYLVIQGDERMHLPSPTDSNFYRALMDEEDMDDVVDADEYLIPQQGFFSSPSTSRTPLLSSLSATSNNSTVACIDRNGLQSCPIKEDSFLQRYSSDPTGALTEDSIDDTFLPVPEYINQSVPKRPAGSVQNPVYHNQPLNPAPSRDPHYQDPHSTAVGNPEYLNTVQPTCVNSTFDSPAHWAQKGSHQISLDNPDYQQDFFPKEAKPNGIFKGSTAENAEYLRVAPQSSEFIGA
Procedure, shortened: as §1

EGFR L858R/T790M mutant = EGFR L858R/T790M mutant (Homo sapiens (Human), UniProt P00533, L858R/T790M); experiment: HotSpot radiometric kinase assay, EGFR L858R/T790M mutant; conditions: 10 μM ATP
Procedure, shortened: as §1

Structure (SMILES) | IC50 (EGFR (D770_N771insNPG)) | IC50 (CLK2) | IC50 (EGFR Δ746-750 mutant) | IC50 (EGFR WT) | IC50 (CLK4) | IC50 (CLK3) | IC50 (CLK1) | IC50 [1] | IC50 [2] | IC50 (EGFR L858R mutant) | IC50 (EGFR L858R/T790M mutant)
Cc1nn(C)c2c1/C=C/c1n[nH]c3ccc(cc13)-c1cnn(C)c1OCCN1CC[C@@H](O2)C1=O [Example 109, (10R,15E)-3,12,14-trimethyl-5,6,9,10,12,18-hexahydro-3H,8H-19,21-etheno-7,10-methanotripyrazolo[3,4-i:3′,4′-m:4″,3″-q][1,8,4]dioxazacyclooctadecin-24-one] | 298 nM | 0.09 nM | 38 nM | 856 nM | 0.85 nM | 2 nM | 0.46 nM | 152 nM | 47.1 nM | 165 nM | 15.9 nM
CCOc1nn([C@@H](C)CO)c2c1/C=C/c1n[nH]c3cc(F)c(cc13)-c1cnn(C)c1O[C@H](C)CN(C(C)C)C2 [Example 229, (2S)-2-[(10R,17E)-16-ethoxy-19-fluoro-8,10-dimethyl-12-(propan-2-yl)-2,8,10,11,12,13-hexahydro-14H-3,5-ethenotripyrazolo[3,4-f:3′,4′-j:4″,3″- n][1,4]oxazacyclopentadecin-14-yl]propan-1-ol] | 38.6 nM | 59.6 nM | 1.94 nM | 24.8 nM | 68.5 nM | 1000 nM | 131 nM | 4.05 nM | 1.24 nM | 7.1 nM | 4.07 nM
CCN1Cc2c(c(OC(C)C)nn2C[C@H](C)O)/C=C/c2n[nH]c3ccc(cc23)-c2cnn(C)c2O[C@H](C)C1 [Example 227, (2S)-1-{(10R,17E)-12-ethyl-8,10-dimethyl-16-[(propan-2-yl)oxy]-2,8,10,11,12,13-hexahydro-14H-3,5-ethenotripyrazolo[3,4-f:3′,4′-j:4″,3″- n][1,4]oxazacyclopentadecin-14-yl}propan-2-ol] | 167 nM | 2.59 nM | 9.86 nM | 251 nM | 4.63 nM | 471 nM | 4.9 nM | 6.82 nM | 0.36 nM | 60.1 nM | 0.84 nM
CCOc1nccc2c1/C=C/c1n[nH]c3ccc(cc13)-c1cnn(C)c1O[C@@H](C)CN(C)C2 [Example 240, (10S,18E)-17-ethoxy-8,10,12-trimethyl-2,8,10,11,12,13-hexahydro-3,5-ethenodipyrazolo[3,4-j:4′,3′-n]pyrido[4,3-f][1,4]oxazacyclopentadecine] | > 1000 nM | 12.5 nM | 826 nM | > 1000 nM | 1.52 nM | 1000 nM | 1.12 nM | 653 nM | 10.5 nM | 775 nM | 5.92 nM

More lines, now with the values ahead:

IC50 (EGFR (D770_N771insNPG)) | IC50 (CLK2) | IC50 (EGFR Δ746-750 mutant) | IC50 (EGFR WT) | IC50 (CLK4) | IC50 (CLK3) | IC50 (CLK1) | IC50 [1] | IC50 [2] | IC50 (EGFR L858R mutant) | IC50 (EGFR L858R/T790M mutant) | Structure (SMILES)
534 nM | 0.24 nM | 53.8 nM | 195 nM | 1.83 nM | 155 nM | 0.82 nM | 17.7 nM | 1.05 nM | 61.5 nM | 0.65 nM | CCOc1noc2c1/C=C/c1n[nH]c3ccc(cc13)-c1cnn(C)c1O[C@@H](C)CN(C)C2 [Example 183, (10S,17E)-16-ethoxy-8,10,12-trimethyl-2,8,10,11,12,13-hexahydro-3,5-etheno[1,2]oxazolo[5,4-f]dipyrazolo[3,4-j:4′,3′-n][1,4]oxazacyclopentadecine]
47 nM | 1.61 nM | 5.84 nM | 36.8 nM | 1.63 nM | 1000 nM | 0.76 nM | 1.96 nM | 0.26 nM | 13.1 nM | 0.89 nM | CCOc1nn(CCO)c2c1/C=C/c1n[nH]c3ccc(cc13)-c1cnn(C)c1OC[C@H](C)N(C1CC1)C2 [Example 198, 2-[(11S,17E)-12-cyclopropyl-16-ethoxy-8,11-dimethyl-2,8,10,11,12,13-hexahydro-14H-3,5-ethenotripyrazolo[3,4-f:3′,4′-j:4″,3″- n][1,4]oxazacyclopentadecin-14-yl]ethan-1-ol]

Reference: patent publication US20250353864A1, “INDAZOLE CONTAINING MACROCYCLES AND THEIR USE” (BLOSSOMHILL THERAPEUTICS, INC., priority 2022, published 2025)
